One assay addresses T1, LiTryR dimer (Leishmania infantum, UniProt A4HSF7).
T1 construct: made in house; host or cells: E. coli BL21 (DE3) Rossetta (co-transformed with both plasmids)
Put plainly: biochemical. The following applies: 400 nM LiTryR, 16 h at 37 °C; read-out: IC50^dim, LiTryR monomer displacement (dimer quantitation ELISA). On the procedure: The stability of the LiTryR dimeric form in the presence of 1,2,3-triazole-phenyl-thiazole-based compounds was evaluated using the novel enzyme-linked immunosorbent assay (ELISA) developed in our laboratory.[25] […] Next, the different solutions were centrifuged at 18 000g for 15 min at room temperature. The supernatants (200 μL/well) were added to the α-FLAG-coated plates (Sigma-Aldrich, St. Louis, MO) and incubated for 30 min at 37 °C with agitation in a humid atmosphere. The plates were washed five times with TTBS buffer (2 mM Tris, pH 7.6, 138 mM NaCl, and 0.1% Tween-20) and incubated with diluted monoclonal α-HIS horseradish peroxidase (HRP)-conjugated antibody (200 μL, 1:50 000, Abcam, Cambridge, U.K.) in fatty acid- and essentially globulin-free bovine serum albumin (BSA) (5%) prepared in TTBS buffer for 1 h at room temperature. The plates were washed five times, and o-phenylenediamine dihydrochloride (OPD) substrate prepared according to the manufacturer’s instructions was added. The enzymatic reaction was stopped after 5 min with H2SO4 (100 μL, […]), and the absorbances were measured at 490 nm in an EnSpire Multimode Plate Reader (PerkinElmer, Waltham, MA). All of the assays were conducted in triplicate in at least three independent experiments. Data were analyzed using a nonlinear regression model with GraFit 6 software (Erithacus, Horley, Surrey, U.K.).
For orientation: In an ELISA, binding on a coated surface is turned into a signal by an enzyme label.

A further assay has as its target T2, LiTryR (Leishmania infantum, UniProt A4HSF7).
T2 construct: HIS (N); made in house; host or cells: E. coli BL21 (DE3) Rossetta
Put plainly: biochemical. Format: biochemical. The following applies: LiTryR; 1 μM TS2; maximum assayed 75 μM; read-out: IC50^act, TryR oxidoreductase activity. On the procedure:
A concentration of 1 μM TS2 was used for this initial screening. This low substrate concentration is sufficient for comparison of compound inhibitory activity in the oxidoreductase assay.
Recombinant L. infantum TryR (LiTryR) HIS-tagged and HIS-FLAG-tagged versions were used for all LiTryR oxidoreductase activity and dimer quantitation assays. These LiTryR versions were purified from Escherichia coli as previously described.[25] Briefly, pRSETA-HIS-LiTryR construct alone or in combination with the pET24a-FLAG-LiTryR construct was transformed into BL21 (DE3) Rossetta E. coli strain. An overnight E. coli culture grown at 37 °C in Luria–Bertani (LB) medium with the appropriate antibiotics and vigorous shaking was diluted (1:100) in the same medium and allowed to grow in the same conditions until the OD600 was 0.5. Then, LiTryR expression was induced by addition of 1 mM isopropyl-β-D-1-thiogalactopyranoside (IPTG) for 16 h at 26 °C. The cells were centrifuged for 5 min at 9000g and 4 °C and the wet pellet resuspended in lysis buffer (50 mM Tris, pH 7, 300 mM NaCl, 25 mM imidazole, protease inhibitor cocktail, and 1 mg/mL lysozyme). […] The supernatant was sonicated again as previously described for 10 min and loaded on a HisTrap column (GE Healthcare, Chicago, IL) for 16 h at 4 °C using a P-1 peristaltic pump (GE Healthcare, Chicago, IL). Once loaded, the HisTrap column was connected to an ÄKTA purifier UPC 10 (GE Healthcare, Chicago, IL) and washed using a 5–10% gradient between buffer A (50 mM Tris, pH 7 and 300 mM NaCl) and B (50 mM Tris, pH 7, 300 mM NaCl, and 500 mM imidazole). LiTryR was eluted using a 40% gradient between buffers A and B. Fractions containing recombinant LiTryR were pooled and loaded into a HiPrep 26/10 Desalting column (GE Healthcare, Chicago, IL) previously equilibrated with buffer A. Finally, LiTryR was concentrated to 2 mg/mL using an Amicon Ultra-15 50K (Merck Millipore, Burlington, MA) and an equal volume of glycerol was added before storing at −20 °C.
TryR oxidoreductase activity was determined spectrophotometrically using a modified version of the DTNB-coupled assay described by Hamilton et al.[52] Briefly, reactions were carried out at 26 °C in 250 μL of N-(2-hydroxyethyl)piperazine-N′-ethanesulfonic acid (HEPES) buffer (pH 7.5, 40 mM) containing ethylenediaminetetraacetic acid (EDTA) (1 mM), NADP^+ (30 μM), DTNB (25 μM), TS2 (1 μM), NADPH (150 μM), glycerol (0.02%), DMSO (1.75%), and recombinant TryR (7 nM). […] Reactions were started by addition of a mixture of NADPH and TS2.
TryR oxidoreductase activity was monitored at 26 °C by an increase in absorbance at 412 nm in an EnSpire Multimode Plate Reader (PerkinElmer, Waltham, MA). […] (TNB) concentration was obtained by multiplying the absorbance values by 100 (50 μM TNB generates 0.5 arbitrary units of absorbance at 412 nm). In this DTNB-coupled assay, one molecule of T(SH)2 reduces one molecule of DTNB, producing two TNB molecules. All of the assays were conducted in at least three independent experiments. Data were analyzed using a nonlinear regression model with GraFit 6 software (Erithacus, Horley, Surrey, U.K.).

The subject of assay [1] is L. infantum axenic amastigotes. Description: Leishmanicidal activity on axenic amastigotes (PI exclusion, flow cytometry). The format is cell-based, Leishmania infantum. The following applies: for SIa (ratio of EC50 against human cells to EC50 against amastigotes): HepG2 / axenic amastigotes; for EC50: Leishmania infantum, axenic amastigotes, 24 h at 37 °C, read-out: EC50 amastigotes. On the procedure:
(§1) L. infantum promastigotes (MCAN/ES/89/IPZ229/1/89) were grown in Roswell Park Memorial Institute (RPMI)-1640 medium (Sigma-Aldrich, St. Louis, MO) supplemented with 10% heat-inactivated fetal calf serum (FCS), antibiotics, and 25 mM HEPES (pH 7.2) at 26 °C. L. infantum axenic amastigotes (MCAN/ES/89/IPZ229/1/89) were grown in M199 medium (Invitrogen, Leiden, The Netherlands) supplemented with 10% heat-inactivated FCS, 1 g/L β-alanine, 100 mg/L L-asparagine, 200 mg/L sucrose, 50 mg/L sodium pyruvate, 320 mg/L malic acid, 40 mg/L fumaric acid, 70 mg/L succinic acid, 200 mg/L α-ketoglutaric acid, 300 mg/L citric acid, 1.1 g/L sodium bicarbonate, 5 g/L morpholineethanesulfonic acid (MES), 0.4 mg/L hemin, and 10 mg/L gentamicine, pH 5.4, at 37 °C.
Axenization was performed by diluting 0.5 mL of a 7-day stationary phase culture of L. infantum promastigotes (2–3 × 10^7 parasites/mL) in 4.5 mL of amastigotes medium and incubating the culture at 37 °C for 2 or 3 days. L. infantum axenic amastigotes apparition was followed by phase-contrast microscopy using an Eclipse Ti inverted microscope (Nikon, Tokyo, Japan).
(§2) Drug treatment of L. infantum promastigotes was performed during the logarithmic growth phase at a concentration of 2 × 10^6 parasites/mL at 26 °C for 24 h. […] EC50 was evaluated by flow cytometry by the propidium iodide (PI) exclusion method. After selection of the parasite population based on their forward scatter (FSC) and side scatter (SSC) values, live and dead parasite cells were identified by their permeability to PI. All of the assays were conducted in triplicate in at least three independent experiments. Data were analyzed using a nonlinear regression model with GraFit 6 software (Erithacus, Horley, Surrey, U.K.).
A general note: A flow cytometer gives signals particle by particle.

The test system of assay [2] is L. infantum promastigotes. Description: Leishmanicidal activity on promastigotes (PI exclusion, flow cytometry). The note with it: for SIp (ratio of EC50 against human cells to EC50 against promastigotes): HepG2 / promastigotes; for EC50: Leishmania infantum, 24 h at 26 °C, read-out: EC50 promastigotes. Format: cell-based, Leishmania infantum. How it is done:
as §1, §2

The subject of another assay is HepG2 cells. Description: Cellular toxicity, crystal violet assay. Format: cell-based. The following applies: Homo sapiens, HepG2; 24 h, crystal violet method; read-out: EC50 HepG2. On the procedure:
Liver hepatocellular carcinoma HepG2 cells were grown in Dulbecco’s modified Eagle’s medium (DMEM) (Sigma-Aldrich, St. Louis, MO) with 10% heat-inactivated FCS, antibiotics, and 10 mM HEPES.
Drug treatment of liver hepatocellular carcinoma HepG2 cells was performed at a concentration of 10^5 cells/mL at 37 °C and 5% CO2 for 24 h. EC50 was evaluated by the crystal violet assay. Briefly, cells were washed with phosphate-buffered saline (PBS) and stained with 200 μL of crystal violet solution (0.2% crystal violet, 2% ethanol) for 10 min at room temperature. Next, the plates were washed twice with tap water and allowed to dry. The stained cells were solubilized with 400 μL of 1% sodium dodecyl sulfate (SDS), and the color intensity was quantified at 570 nm using an EnSpire Multimode Plate Reader (PerkinElmer, Waltham, MA). All of the assays were conducted in triplicate in at least three independent experiments. Data were analyzed using a nonlinear regression model with GraFit 6 software (Erithacus, Horley, Surrey, U.K.).

Non-standard residues stand in square brackets, D forms with d. Residues, ends and D or L forms follow the SMILES beside them. Nle = CCCC[C@H](N)C(=O)O

T2 sequence (A4HSF7 1-491): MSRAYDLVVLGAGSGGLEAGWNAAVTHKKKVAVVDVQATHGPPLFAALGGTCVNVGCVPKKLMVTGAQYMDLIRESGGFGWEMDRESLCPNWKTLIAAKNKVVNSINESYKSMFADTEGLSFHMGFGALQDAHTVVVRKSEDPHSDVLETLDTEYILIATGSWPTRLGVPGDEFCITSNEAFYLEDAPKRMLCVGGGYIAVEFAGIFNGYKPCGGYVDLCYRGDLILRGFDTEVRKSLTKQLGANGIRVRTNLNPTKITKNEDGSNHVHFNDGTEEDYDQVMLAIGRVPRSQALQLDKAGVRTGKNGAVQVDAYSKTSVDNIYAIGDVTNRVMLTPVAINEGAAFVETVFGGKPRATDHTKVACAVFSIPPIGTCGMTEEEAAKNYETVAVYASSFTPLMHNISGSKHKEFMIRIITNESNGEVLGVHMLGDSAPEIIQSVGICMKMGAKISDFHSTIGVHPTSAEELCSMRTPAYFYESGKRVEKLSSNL
T1 sequence (A4HSF7 1-491): as above

Take `O=C1NCCN1CCOc1cc(-n2cc(CCCCO)nn2)ccc1-c1nc(CCc2ccccc2)cs1` [12d]: the IC50 on LiTryR dimer and at LiTryR was greater than 75 µM in each case.
For `CCCCc1cn(-c2ccc(-c3nc(CCc4ccccc4)cs3)c(OCCN3CCNC3=O)c2)nn1` [12e], the IC50 on LiTryR dimer and at LiTryR was greater than 75 µM in each case.
For the molecule `CCCCc1cn(-c2ccc(-c3nc(CCc4ccc(-c5ccccc5)cc4)cs3)c(OCCN3CCNC3=O)c2)nn1` [12f], the IC50 on LiTryR dimer and on LiTryR was greater than 75 µM in each case.
Turning to `NCCCc1cn(-c2ccc(-c3nc(CCc4ccccc4)cs3)c(OCCN3CCNC3=O)c2)nn1.O=C(O)C(F)(F)F` [12h], the results for the half-inhibitory concentration (IC50) on LiTryR dimer and at LiTryR were greater than 75 µM and 20.8 ± 2.3 µM, respectively. Moreover, in assay [1], the “SIa (ratio of EC50 against human cells to EC50 against amastigotes)” value was less than 1. The EC50 came to 31.6 ± 5.8 µM in assay [1], 12.7 ± 0.3 µM in assay [2] and 25.7 ± 2.2 µM in the assay on HepG2 cells. In addition, in assay [2], the “SIp (ratio of EC50 against human cells to EC50 against promastigotes)” value was 2.0.
As for `COc1cc(-n2cc(CCCCN)nn2)ccc1-c1nc(CCc2ccccc2)cs1.O=C(O)C(F)(F)F` [12j], the IC50 was greater than 75 µM at LiTryR dimer and 20.1 ± 2.5 µM on LiTryR. Moreover, the “SIa (ratio of EC50 against human cells to EC50 against amastigotes)” value in assay [1] was determined as 1.7. Further, the values for the EC50 (in assay [1]; in assay [2]; in the assay on HepG2 cells) were 7.1 ± 0.7 µM, 8.5 ± 0.1 µM and 12.4 ± 0.7 µM, respectively.
As to `COc1cc(-n2cc(CCCCN)nn2)ccc1-c1nc(CCc2ccc(-c3ccccc3)cc2)cs1.O=C(O)C(F)(F)F` [12k], the half-inhibitory concentration (IC50) worked out at 16.1 ± 0.7 µM on LiTryR dimer and 26.8 ± 5.7 µM at LiTryR. For the same molecule, the “SIa (ratio of EC50 against human cells to EC50 against amastigotes)” value in assay [1] is “ND/1.9”. Also, the EC50 in assay [1] turned out to be 4 ± 0.2 µM; with HepG2 cells, 7.4 ± 0.6 µM.
Turning to `CC(C)Oc1csc(-c2ccc(-n3cc(CCCCN)nn3)cc2OCCN2CCNC2=O)n1` [12l], the figures for the IC50 at LiTryR dimer and on LiTryR were greater than 75 µM and 54.5 ± 4.4 µM, respectively.
For the molecule `CC(C)(C)Cc1csc(-c2ccc(-n3cc(CCCCN)nn3)cc2OCCN2CCNC2=O)n1.O=C(O)C(F)(F)F` [12m], the values for the IC50 on LiTryR dimer and at LiTryR were greater than 75 µM and 24.1 ± 1.4 µM, respectively. Moreover, in assay [1], the “SIa (ratio of EC50 against human cells to EC50 against amastigotes)” value came out at 1.8. For the same molecule, the figures for the EC50 (in assay [1]; in assay [2]; in the assay with HepG2 cells) were 25.2 ± 0.5 µM, 42.6 ± 3.9 µM and 44.9 ± 1.3 µM, respectively. Also, the “SIp (ratio of EC50 against human cells to EC50 against promastigotes)” value in assay [2] is recorded as 1.0.
Turning to `NCCCCc1cn(-c2ccc(-c3nc(Cc4ccccc4)cs3)c(OCCN3CCNC3=O)c2)nn1` [12o], the values for the EC50 (in assay [1]; in assay [2]; with HepG2 cells) were greater than 75 µM, greater than 75 µM and 67.9 ± 1.5 µM, respectively.
`CCCC[C@H](NC(=O)[C@H](CCCCN)NC(=O)[C@H](CCCC)NC(=O)[C@H](CO)NC(=O)[C@@H](NC(=O)CNC(=O)[C@@H](NC(=O)[C@H](CO)NC(=O)[C@H](CCC(N)=O)NC(=O)[C@@H](NC(=O)[C@@H](NC(=O)[C@H](CCCCN)NC(=O)[C@@H]1CCCN1C(=O)[C@H](CCCNC(=N)N)NC(=O)[C@H](CCCNC(=N)N)NC(=O)[C@H](CCCNC(=N)N)NC(=O)[C@H](CCCNC(=N)N)NC(=O)[C@H](CCCNC(=N)N)NC(=O)[C@H](CCCNC(=N)N)NC(=O)[C@H](CCCNC(=N)N)NC(=O)[C@H](CCCNC(=N)N)NC(=O)[C@H](CCCNC(=N)N)NC(C)=O)[C@@H](C)CC)[C@@H](C)CC)C(C)C)[C@@H](C)CC)C(N)=O` [R9-peptide 1, reference compound] (Ac-RRRRRRRRRPKIIQSVGIS[Nle]K[Nle]-NH2; N-terminus and C-terminus assumed): the “SIa (ratio of EC50 against human cells to EC50 against amastigotes)” value in assay [1] came to 18.1. The “SIp (ratio of EC50 against human cells to EC50 against promastigotes)” value in assay [2] worked out at 19.9.
Turning to `O=C1NCCN1CCOc1cc(Br)ccc1-c1nc(CCc2ccccc2)cs1` [compound 13], the IC50 at LiTryR dimer and at LiTryR was greater than 75 µM each time.
As to `N#Cc1ccc(-n2cc(CCCCN)nn2)cc1OCCN1CCNC1=O` [compound 14], the IC50 on LiTryR dimer and at LiTryR was greater than 75 µM in each case.

One may read the IC50 as the midpoint of a concentration-inhibition curve. Usually EC50 stands for the concentration at which the effect is half-maximal.

The values above are taken from article PMC8480782, “Efficient Dimerization Disruption of Leishmania infantum Trypanothione Reductase by Triazole-phenyl-thiazoles” (Journal of Medicinal Chemistry, 2021).
